According to US7645757B2, “Derivatives of heteroaryl-alkylcarbamates, methods for their preparation and use thereof as fatty acid amido hydrolase enzyme inhibitors” (sanofi-aventis, priority 2004, dated 2010):
Blank lines part the entries; values can stand above or below the molecule they belong to.

Experiments:
[1] = tested on: male OF1 mice; assay: test for analgesia: PBQ (phenylbenzoquinone)-induced abdominal tractions; type: in vivo; conditions: 10 mg/kg p.o.
Experimental: The in vivo activity of the compounds of the invention was evaluated in a test for analgesia. Thus, the intraperitoneal (i.p.) administration of PBQ (phenylbenzoquinone, 2 mg/kg in a 0.9% sodium chloride solution comprising 5% of ethanol) to male OF1 mice weighing 25 to 30 g causes abdominal tractions, on average 30 twisting or contracting motions during the period from 5 to 15 minutes after injection. The test compounds are administered, orally (p.o.) or intraperitoneally (i.p.) in suspension in 0.5% Tween 80, 60 minutes or 120 minutes before the administration of PBQ. Under these conditions, the most powerful compounds of the invention reduce by 35 to 70% the number of tractions induced by the PBQ, within a range of doses of between 1 and 30 mg/kg.

[2] = target: T1, enzyme FAAH (Fatty Acid amido Hydrolase) (Mus musculus, UniProt O08914); assay: radioenzymatic test of FAAH inhibition (hydrolysis of ((1-3H)ethanolamine)-anandamide by mouse brain membrane homogenates); type: biochemical; conditions: 10 μM anandamide, 15 minutes at 25° C., read-out: IC50 (concentration which inhibits the control enzymatic activity of FAAH by 50%)
T1 construct: The membrane homogenates are prepared at the time of use by homogenization of the tissues with a Polytron; from tissue; host or cells: mouse brain (minus the cerebellum), membrane homogenate
T1 sequence (O08914 1-579): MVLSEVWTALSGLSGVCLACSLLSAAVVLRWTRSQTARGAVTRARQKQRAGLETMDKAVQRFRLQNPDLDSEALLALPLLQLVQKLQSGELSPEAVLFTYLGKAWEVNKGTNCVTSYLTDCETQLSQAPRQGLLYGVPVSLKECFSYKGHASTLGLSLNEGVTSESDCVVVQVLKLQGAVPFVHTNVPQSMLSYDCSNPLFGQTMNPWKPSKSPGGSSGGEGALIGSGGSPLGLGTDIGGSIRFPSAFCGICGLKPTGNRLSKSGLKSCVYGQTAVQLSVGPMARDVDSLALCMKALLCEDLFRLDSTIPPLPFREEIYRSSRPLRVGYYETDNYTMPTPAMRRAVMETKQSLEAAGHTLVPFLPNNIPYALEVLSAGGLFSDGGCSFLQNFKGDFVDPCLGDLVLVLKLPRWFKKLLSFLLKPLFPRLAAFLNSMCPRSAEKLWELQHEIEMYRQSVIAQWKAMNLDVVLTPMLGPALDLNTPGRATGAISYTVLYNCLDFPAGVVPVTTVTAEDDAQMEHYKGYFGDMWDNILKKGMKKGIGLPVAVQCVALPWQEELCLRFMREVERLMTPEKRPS
Experimental: The compounds of the invention have formed the subject of pharmacological trials which make it possible to determine their inhibitory effect on the enzyme FAAH (Fatty Acid amido Hydrolase).
Thus, mouse brains (minus the cerebellum) are removed and stored at −80° C. The membrane homogenates are prepared at the time of use by homogenization of the tissues with a Polytron in a 10 mM Tris-HCl buffer (pH 8.0) comprising 150 mM NaCl and 1 mM EDTA. The enzymatic reaction is subsequently carried out in 70 μl of buffer comprising bovine serum albumin free from fatty acids (1 mg/ml). The test compounds, at various concentrations, the ((1-^3H)ethanolamine)-anandamide (specific activity of 15-20 Ci/mmol), diluted to 10 μM with non-radiolabelled anandamide, and the membrane preparation (400 μg of frozen tissue per assay) are successively added. After 15 minutes at 25° C., the enzymatic reaction is halted by addition of 140 μl of chloroform/methanol (2:1). The mixture is stirred for 10 minutes and is then centrifuged at 3500 g for 15 minutes. An aliquot (30 μl) of the aqueous phase comprising the (1-^3H)ethanolamine is counted by liquid scintillation.

Compound: CNC(=O)COC(=O)NCCCc1cc(-c2ccc(Cl)cc2)ncn1 [Compound 20, 2-(methylamino)-2-oxoethyl 3-[6-(4-chlorophenyl)pyrimidin-4-yl]propylcarbamate]
- melting point: 147 to 149 °C

Compound: CNC(=O)COC(=O)NCCCc1cc(-c2ccc(Cl)cc2)no1 [Compound 29, 2-(methylamino)-2-oxoethyl 3-[3-(4-chlorophenyl)isoxazol-5-yl]propylcarbamate]
- melting point: 158 to 160 °C

Compound: CNC(=O)COC(=O)NCCCc1cc(-c2ccc(-c3ccccc3)cc2)no1 [Compound 30, 2-(methylamino)-2-oxoethyl 3-[3-(4-phenylphenyl)isoxazol-5-yl]propylcarbamate]
- melting point: 198 to 200 °C

Compound: NC(=O)COC(=O)NCCCCc1ccncc1 [Compound 37, 2-amino-2-oxoethyl 4-(pyrid-4-yl)butylcarbamate]
- melting point: 124 to 126 °C

Compound: CNC(=O)COC(=O)NCCCCc1cc(-c2ccc(Cl)cc2)no1 [Compound 48, 2-(methylamino)-2-oxoethyl 4-[3-(4-chlorophenyl)isoxazol-5-yl]butylcarbamate]
- reduction of the number of tractions induced by the PBQ ([1]; administered 60 minutes before PBQ): 53%
- reduction of the number of tractions induced by the PBQ ([1]; administered 120 minutes before PBQ): 62%

Compound: NC(=O)COC(=O)NCCCC#Cc1cccc2ccccc12 [Compound 71, 2-amino-2-oxoethyl [5-(naphth-1-yl)pent-4-yn-1-yl]carbamate]
- melting point: 105 to 108 °C

Results, then the molecule that gave them:

- melting point: 130 to 132 °C
Compound: CNC(=O)COC(=O)NCCc1ccc(-c2ccccc2)nc1 [Compound 3, 2-(methylamino)-2-oxoethyl 2-(6-phenylpyrid-3-yl)ethylcarbamate]

- melting point: 64 to 67 °C
Compound: CNC(=O)COC(=O)NCCCCn1ccc2ccccc21 [Compound 56, 2-(methylamino)-2-oxoethyl 4-(1H-indol-1-yl)butylcarbamate]

- melting point: 52 to 54 °C
Compound: CNC(=O)COC(=O)NCCCCn1ccc2cccnc21 [Compound 58, 2-(methylamino)-2-oxoethyl 4-(1H-pyrrolo[2,3-b]pyrid-1-yl)butylcarbamate]

- IC50 [2]: 267 nM
Compound: NC(=O)COC(=O)NCCCCCc1cncc2ccccc12 [Compound 68, 2-amino-2-oxoethyl 5-(isoquinolin-4-yl)pentylcarbamate]
